Measurements reported in patent US20180326102A1, “SYSTEMS, METHODS, AND COMPOSITIONS FOR IMAGING ANDROGEN RECEPTOR AXIS ACTIVITY IN CARCINOMA, AND RELATED THERAPEUTIC COMPOSITIONS AND METHODS” (Memorial Sloan Kettering Cancer Center, priority 2015, published 2018).
Square brackets hold non-standard residues; d marks the D form. Peptide text beside a SMILES is read from it. * marks the point of attachment. dPhe(4-NHCONH2) = NC(=O)Nc1ccc(C[C@@H](N)C(=O)O)cc1; Dihydroorotyl(S) = O=C1C[C@@H](C(=O)*)NC(=O)N1; dPhe(4-Cl) = N[C@H](Cc1ccc(Cl)cc1)C(=O)O; Phe(4-NH2) = Nc1ccc(C[C@H](N)C(=O)O)cc1; d2Nal = N[C@H](Cc1ccc2ccccc2c1)C(=O)O; Lys(iPr) = CC(C)NCCCC[C@H](N)C(=O)O; d3Pal = N[C@H](Cc1cccnc1)C(=O)O

Key:
[1] = system: Pb_KLK2×Hi-Myc mice; type: in vivo
Protocol: A final clinical simulation involved non-invasive imaging of the impact of different degrees of inhibition on AR activity in the tumor (intratumoral) and prostate itself (intraprostatic). Progression of disease was initially monitored in 14 Pb_KLK2 XHi-Myc mice using ^89Zr-11B6 PET. Thereafter, mice were randomized into 3 treatment groups: vehicle (n=4), castration (n=6), or castration plus Enzalutamide (n=4).
PET imaging experiments were conducted on a micro-PET Focus 120 scanner (Concorde Microsystems). In initial studies, mice (n=4) were administered formulations of ^89Zr-11B6 [3.7-5.55 MBq (100-150 μCi), 300, 100, 50, or 25 μg of protein, in 150 μL sterile saline for injection] through i.v. Tail-vein injection. Approximately 5 minutes before recording PET images, mice were anesthetized by inhalation of 1% to 2% isoflurane (Baxter Healthcare)/oxygen gas mixture and placed on the scanner bed. PET images were recorded at various time points between 1 and 344 hours post-injection. […] For all static images, scan time was adjusted to ensure between 15-25 million coincident events were recorded.
Site-directed mutagenesis of APLILSR to APLRTKR at positions […], -3, and -2 the zymogen sequence of KLK2 was performed using a Quick Change Lightning Mutagenesis Kit (Stratagene). […] Mice were monitored closely in accordance with IACUC-established guidelines and RARC animal protocol (#04-01-002).

[2] = system: VCaP; test: 18F-FDHT imaging in VCaP bearing mouse; type: in vivo; conditions: 1.5 h after administration
Protocol: The distribution at 1.5 h after administration in a representative VCaP (arrow) bearing mouse. ^18F-FDHT is a radiolabeled analog of the non-aromatizable dihydrotestosterone.

## CC(=O)N[C@H](Cc1ccc2ccccc2c1)C(=O)N[C@H](Cc1ccc(Cl)cc1)C(=O)N[C@H](Cc1cccnc1)C(=O)N[C@@H](CO)C(=O)N[C@@H](Cc1ccc(NC(=O)[C@@H]2CC(=O)NC(=O)N2)cc1)C(=O)N[C@H](Cc1ccc(NC(N)=O)cc1)C(=O)N[C@@H](CC(C)C)C(=O)N[C@@H](CCCCNC(C)C)C(=O)N1CCC[C@H]1C(=O)N[C@H](C)C(N)=O [Degarelix] (Ac-[d2Nal][dPhe(4-Cl)][d3Pal]S[Phe(4-NH2)](Dihydroorotyl(S))[dPhe(4-NHCONH2)]L[Lys(iPr)]P[dA]-NH2)
[1]; depot injections, androgen ablation for 2 months
  ^89Zr-11B6 uptake (AR pathway readout) during GnRH antagonist therapy: decreased following castration but reemerged at the end of the treatment period

## CC12CCC(=O)CC1CCC1C2CCC2(C)C(O)C([18F])CC12 (stereo not drawn) [^18F-FDHT]
[2]
  Liver, bile and kidney uptake relative to tumor uptake: equivalent to or exceeds tumor uptake

## CNC(=O)c1ccc(N2C(=S)N(c3ccc(C#N)c(C(F)(F)F)c3)C(=O)C2(C)C)cc1F [Enzalutamide]
[1]; castration plus Enzalutamide, n=4
  reactivation of ^89Zr-11B6 uptake (AR activity) after castration plus adjuvant androgen receptor blockade: not significant
